Several values for one entry are separate records, joined by “and”; a condition that tells them apart may be missing. Equal entries are not always repeated. Inconclusive results and toxic doses are left out.

The source of these data is PubChem BioAssay AID328 (DTP/NCI, 2004).

The assay deals with BDF1 mice, P388 leukemia ip, median survival T/C. Description: NCI In Vivo Anticancer Drug Screen. Data for tumor model P388 Leukemia (intraperitoneal) in B6D2F1 (BDF1) mice. The note with it: endpoint: median survival time, higher = longer survival. In short, it runs like this:
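Survival ratio, drug arm over vehicle arm, in mice with a transplanted tumour.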

The mark [1] stands for this setting: dose: 100.0 mg/kg/injection, schedule: Q04DX003 (ip), vehicle: saline sonified.
The mark [2] stands for this setting: dose: 100.0 mg/kg/injection, schedule: Q04DX003 (ip), vehicle: saline with Tween-80.
The mark [3] stands for this setting: dose: 200.0 mg/kg/injection, schedule: Q04DX003 (ip), vehicle: saline with Tween-80.
Where [4] appears, read: dose: 50.0 mg/kg/injection, schedule: Q01DX009 (ip), vehicle: saline with Tween-80.
Setting [5] is: dose: 100.0 mg/kg/injection, schedule: Q01DX009 (ip), vehicle: saline with Tween-80.
Setting [6] is: dose: 200.0 mg/kg/injection, schedule: Q01DX009 (ip), vehicle: saline with Tween-80.
Where [7] appears, read: dose: 400.0 mg/kg/injection, schedule: Q04DX003 (ip), vehicle: saline with Tween-80.
The mark [8] stands for this setting: dose: 0.78 mg/kg/injection, schedule: Q01DX009 (ip), vehicle: water.
The mark [9] stands for this setting: dose: 1.56 mg/kg/injection, schedule: Q01DX009 (ip), vehicle: water.
[10] abbreviates: dose: 3.12 mg/kg/injection, schedule: Q01DX009 (ip), vehicle: water.
Where [11] appears, read: dose: 12.5 mg/kg/injection, schedule: Q01DX009 (ip), vehicle: water.
The mark [12] stands for this setting: dose: 25.0 mg/kg/injection, schedule: Q01DX009 (ip), vehicle: water.
Where [13] appears, read: dose: 50.0 mg/kg/injection, schedule: Q01DX009 (ip), vehicle: water.
The mark [14] stands for this setting: dose: 100.0 mg/kg/injection, schedule: Q01DX009 (ip), vehicle: water.
[15] abbreviates: dose: 150.0 mg/kg/injection, schedule: Q04DX003 (ip), vehicle: saline sonified.

On to `CNC(=S)NNC(=O)C1CC1`, for which the T/C reads like this: (dose: 50.0 mg/kg/injection, schedule: Q01DX005 (ip), vehicle: saline) 94 % of control; (dose: 100.0 mg/kg/injection, schedule: Q01DX005 (ip), vehicle: saline) 107 % of control; (dose: 200.0 mg/kg/injection, schedule: Q01DX005 (ip), vehicle: saline) 94 % of control.

As to `Nc1nc(SCc2ccccc2)c2ncn(C3OC(CO)CC3O)c2n1` (stereo not drawn), the T/C was 100 % of control (dose: 100.0 mg/kg/injection, schedule: Q01DX009 (ip), vehicle: saline sonified); 109 % of control under setting [1]; 100 % of control (dose: 200.0 mg/kg/injection, schedule: Q01DX009 (ip), vehicle: saline sonified); 109 % of control (dose: 200.0 mg/kg/injection, schedule: Q04DX003 (ip), vehicle: saline sonified); 113 % of control (dose: 400.0 mg/kg/injection, schedule: Q01DX009 (ip), vehicle: saline sonified); 109 % of control (dose: 400.0 mg/kg/injection, schedule: Q04DX003 (ip), vehicle: saline sonified).

As to `Nc1nc(N)c2cc(CNc3ccc(C(=O)NC(CC(=O)O)CC(=O)O)cc3)cnc2n1`, the T/C reads like this: under setting [2], 101 % of control; under setting [3], 113 % of control; (dose: 300.0 mg/kg/injection, schedule: Q04DX003 (ip), vehicle: saline with Tween-80) 86 % of control.

`CSc1ccc(NC(=O)NN(c2ccccc2)C2CCS(=O)(=O)C2)cc1` (stereo not drawn): the T/C by setting is: under setting [4], 100 % of control; under setting [5], 102 % of control; under setting [6], 101 % of control.

Turning to `CCOC(=O)c1ccc(OC(=O)Nc2ccccc2OC)cc1`, the T/C under setting [2] is 91 % of control, the T/C under setting [3] is 108 % of control and the T/C under setting [7] is 108 % of control.

As for `O=C1c2ccccc2C(=O)N1c1cc(OCc2ccccc2)cc(OCc2ccccc2)c1`, the T/C by setting is: under setting [8], 99 % of control and 103 % of control; under setting [9], 96 % of control and 101 % of control; under setting [10], 105 % of control and 120 % of control; (dose: 6.25 mg/kg/injection, schedule: Q01DX009 (ip), vehicle: water) 96 % of control; under setting [11], 95 % of control and 99 % of control and 112 % of control; under setting [12], 99 % of control and 105 % of control. For the same molecule, the T/C reads like this: under setting [13], 89 % of control and 117 % of control; (dose: 50.0 mg/kg/injection, schedule: Q04DX003 (ip), vehicle: water) 94 % of control; under setting [14], 96 % of control; (dose: 100.0 mg/kg/injection, schedule: Q04DX003 (ip), vehicle: water) 99 % of control; (dose: 200.0 mg/kg/injection, schedule: Q01DX009 (ip), vehicle: water) 88 % of control and 115 % of control; (dose: 200.0 mg/kg/injection, schedule: Q04DX003 (ip), vehicle: water) 90 % of control. In addition, the T/C is 101 % of control (dose: 400.0 mg/kg/injection, schedule: Q01DX009 (ip), vehicle: water) and 99 % of control (dose: 400.0 mg/kg/injection, schedule: Q04DX003 (ip), vehicle: water).

Regarding `COC(=O)[C@@H]1[C@@H](O)[C@H](OC(=O)c2cc(OC)c(OC)c(OC)c2)C[C@@H]2CN3CCc4c([nH]c5ccccc45)[C@H]3C[C@@H]21`, the T/C runs as follows: (dose: 1.56 mg/kg/injection, schedule: Q01DX009 (ip), vehicle: saline with Tween-80) 90 % of control; (dose: 2.0 mg/kg/injection, schedule: Q01DX009 (ip), vehicle: Klucel (hydroxypropylcellulose) (HPC)) 100 % of control; (dose: 3.13 mg/kg/injection, schedule: Q01DX009 (ip), vehicle: saline with Tween-80) 90 % of control; (dose: 4.0 mg/kg/injection, schedule: Q01DX009 (ip), vehicle: Klucel (hydroxypropylcellulose) (HPC)) 100 % of control; (dose: 6.25 mg/kg/injection, schedule: Q01DX009 (ip), vehicle: saline with Tween-80) 86 % of control; (dose: 8.0 mg/kg/injection, schedule: Q01DX009 (ip), vehicle: Klucel (hydroxypropylcellulose) (HPC)) 100 % of control. The T/C (dose: 16.0 mg/kg/injection, schedule: Q01DX009 (ip), vehicle: Klucel (hydroxypropylcellulose) (HPC)) was 100 % of control.

Regarding `CC1=C/C(=N\N=C2/C=C(C)CC(C)(C)C2)CC(C)(C)C1`, the T/C by setting is: (dose: 100.0 mg/kg/injection, schedule: Q04DX003 (ip), vehicle: Klucel (hydroxypropylcellulose) (HPC)) 104 % of control; (dose: 200.0 mg/kg/injection, schedule: Q04DX003 (ip), vehicle: Klucel (hydroxypropylcellulose) (HPC)) 109 % of control; (dose: 400.0 mg/kg/injection, schedule: Q04DX003 (ip), vehicle: Klucel (hydroxypropylcellulose) (HPC)) 100 % of control.

As for `O=C(NC12CC3CC(CC(C3)C1)C2)Oc1ccccc1`, the T/C runs as follows: under setting [4], 102 % of control; under setting [5], 102 % of control; under setting [6], 93 % of control.

With `C[n+]1c(-c2ccc(Cl)cc2Cl)c2cc(N)ccc2c2ccccc21`, the T/C (dose: 0.09 mg/kg/injection, schedule: Q01DX009 (ip), vehicle: water) was 98 % of control; the T/C (dose: 0.19 mg/kg/injection, schedule: Q01DX009 (ip), vehicle: water) was 90 % of control; the T/C (dose: 0.39 mg/kg/injection, schedule: Q01DX009 (ip), vehicle: water) was 98 % of control; the T/C under setting [8] was 98 % of control; the T/C under setting [9] is 102 % of control and 120 % of control; the T/C under setting [10] is 98 % of control and 112 % of control.

Turning to `COc1cccc2c1C(=O)c1c(O)c3c(c(O)c1C2=O)C[C@@](O)(C(C)=O)C[C@@H]3OC1CC(NC(C)=O)C(O)C(C)O1` (stereo partly drawn), the T/C (dose: 0.73 mg/kg/injection, schedule: Q01DX009 (ip), vehicle: saline) was 112 % of control; the T/C (dose: 1.1 mg/kg/injection, schedule: Q01DX009 (ip), vehicle: saline) is 175 % of control; the T/C (dose: 1.25 mg/kg/injection, schedule: Q04DX003 (ip), vehicle: saline) was 109 % of control; the T/C (dose: 1.65 mg/kg/injection, schedule: Q01DX009 (ip), vehicle: saline) is 183 % of control; the T/C (dose: 2.5 mg/kg/injection, schedule: Q01DX009 (ip), vehicle: saline) was 187 % of control; the T/C (dose: 10.0 mg/kg/injection, schedule: Q04DX003 (ip), vehicle: saline) was 172 % of control. Moreover, the T/C was 240 % of control and 191 % of control (dose: 12.5 mg/kg/injection, schedule: Q01DX009 (ip), vehicle: saline); 169 % of control under setting [11]; 150 % of control (dose: 25.0 mg/kg/injection, schedule: Q01DX009 (ip), vehicle: saline); 192 % of control under setting [12]; 180 % of control (dose: 44.0 mg/kg/injection, schedule: Q04DX003 (ip), vehicle: saline sonified); 159 % of control (dose: 44.0 mg/kg/injection, schedule: Q04DX003 (ip), vehicle: saline). Moreover, the T/C is 227 % of control (dose: 50.0 mg/kg/injection, schedule: Q01DX009 (ip), vehicle: saline); 204 % of control under setting [13]; 175 % of control (dose: 66.0 mg/kg/injection, schedule: Q04DX003 (ip), vehicle: saline sonified); 181 % of control (dose: 66.0 mg/kg/injection, schedule: Q04DX003 (ip), vehicle: saline); 114 % of control under setting [14]; 205 % of control under setting [1]. Besides, the T/C (dose: 100.0 mg/kg/injection, schedule: Q04DX003 (ip), vehicle: saline) is 195 % of control; the T/C under setting [15] is 180 % of control; the T/C (dose: 150.0 mg/kg/injection, schedule: Q04DX003 (ip), vehicle: saline) was 168 % of control.

Consider `CCCN(CCC)C(=S)[S-].CCCN(CCC)C(=S)[S-].[Zn]`, for which the T/C is 100 % of control (dose: 37.5 mg/kg/injection, schedule: Q04DX003 (ip), vehicle: saline sonified); 100 % of control (dose: 75.0 mg/kg/injection, schedule: Q04DX003 (ip), vehicle: saline sonified); 112 % of control under setting [15].

Regarding `O=C1NN=C(c2ccc(Br)cc2)CS1`, the T/C runs as follows: under setting [4], 100 % of control; under setting [5], 102 % of control.

For `CCOC(=O)CCc1nc(C(=O)OCC)c(C)c(=O)[nH]1`, the T/C is 107 % of control under setting [2], 103 % of control under setting [3] and 100 % of control under setting [7].

For `O=[N+]([O-])c1ccc(NCCO)c([N+](=O)[O-])c1`, the T/C under setting [4] was 101 % of control, the T/C under setting [5] was 107 % of control and the T/C under setting [6] is 113 % of control.
